# Data published in paper PMC11063903, “Engineering a human P2X2 receptor with altered ligand selectivity in yeast” (The Journal of Biological Chemistry, 2024).
# Experiments:
# P2X2 A304I = target: T1, P2X2 A304I (Homo sapiens, UniProt Q9UBL9, A304I); assay: Site-saturation screen of ligand-binding domain with ATP, A304I; assay type: cell-based; details: 500 μM ATP, ± sd
# T1 construct: expressed in transfected cells; host or cells: Saccharomyces cerevisiae BY4741 derivative, genome-integrated, galactose-inducible
# T1 sequence (Q9UBL9 whole entry A304I, the tested form may be a part): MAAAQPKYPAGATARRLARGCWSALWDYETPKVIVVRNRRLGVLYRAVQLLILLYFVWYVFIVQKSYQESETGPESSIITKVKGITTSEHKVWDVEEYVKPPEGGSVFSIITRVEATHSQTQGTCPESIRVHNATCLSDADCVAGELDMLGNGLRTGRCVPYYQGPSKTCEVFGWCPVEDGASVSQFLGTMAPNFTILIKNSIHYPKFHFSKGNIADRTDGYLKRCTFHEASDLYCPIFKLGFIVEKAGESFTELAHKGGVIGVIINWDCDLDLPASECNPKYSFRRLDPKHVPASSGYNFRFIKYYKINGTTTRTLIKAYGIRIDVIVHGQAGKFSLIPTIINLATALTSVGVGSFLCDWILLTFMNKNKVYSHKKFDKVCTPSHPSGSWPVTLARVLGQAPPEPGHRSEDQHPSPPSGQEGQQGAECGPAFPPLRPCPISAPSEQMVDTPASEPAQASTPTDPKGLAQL
# Description: (§1) The yeast P2X2 screening platform poses an opportunity to probe the structure-function of the ligand-binding domain in detail. The conserved P2X “NFR” motif at residues 300 to 302 is directly involved in bonding to the ATP triphosphate moiety ([41]), so we mutagenized residues at or near this motif (298–304), ultimately covering 133 variants (7 sites, 19 residues each). […] We compared our results to phylogenetic data based on a multiple sequence alignment (MSA) from a curated set of 419 related P2X homologs (Figs. 3B, and S5; Table S1).
# (§2) Figure 3 Structure-function analysis of the ligand binding domain.A, heat map summarizing the screening data of ATP with seven site-saturation libraries surrounding the NFR-motif. B, sequence-logo plot of the mutagenized residues and percent identity scores as determined from MSA. C, homology model of P2X2 colored by sequence conservation as calculated from a multiple sequence alignment of 419 related P2X genes. Conservation is scored on a log scale where maroon is more conserved and blue is less conserved. D, ATP in the ligand-binding pocket of P2X2. […]
# (§3) GCaMP assays were performed as follows. […] Cells were loaded onto a black, clear bottom microplate and imaged on a FlexStation3 plate reader. […] Fluorescence was measured with an excitation at 485 nm, and emission 525 nm. […] For strains with mScarlet, fluorescence was read with excitation 570 nm/emission 610 nm. […]
# P2X2 F301 mutants = assay: Site-saturation screen of ligand-binding domain with ATP, F301 mutants; assay type: cell-based, human; details: 500 μM ATP
# Description: as §1, §2, §3
# [1] = target: T2, P2X2 G353 threonine substitution (G353T) (Homo sapiens, UniProt Q9UBL9, G353T); assay: Site-saturation screen, fast kinetic assay in yeast, G353 threonine; assay type: cell-based; details: 500 μM ATP, ΔF/ΔT normalized to WT
# T2 construct: expressed in transfected cells; host or cells: S. cerevisiae BY4741 background
# T2 sequence (Q9UBL9 whole entry G353T): as the sequence (Q9UBL9 whole entry A304I, the tested form may be a part) above, with I304A, G353T counted along it
# Method: (§4) Figure 2 P2X2 SNP testing.A, homology model of P2X2 with the clinically implicated SNPs highlighted. V60 is highlighted in magenta and G353 is highlighted in dark blue. Lines indicate the positions of the mutations on each of the three monomers. B, zoomed view of the transmembrane region from the purple box in (A). V60 is magenta and G353 is dark blue. The structure is rotated 60° on the right image. C, screening data from site-saturation of the V60 residue in saturating ATP concentration (500 μM f.c.) using the fast kinetic assay. Signal onset values (ΔF/ΔT) are normalized to values from the WT receptor. […] Each of 2 to 3 replicates is represented as a single point. […]
# (§5) GCaMP assays were performed as follows. […] Cells were loaded onto a black, clear bottom microplate and imaged on a FlexStation3 plate reader. […] Fluorescence was measured with an excitation at 485 nm, and emission 525 nm. […] For strains with mScarlet, fluorescence was read with excitation 570 nm/emission 610 nm. Slopes were calculated from the last 6 points of measurement and were normalized to the positive control samples. Any replicate in which the mScarlet value was measured to be over 2 standard deviations less than the mean for that set was discarded from further analysis.
# P2X2 A304F = target: T3, P2X2 A304F (Homo sapiens, UniProt Q9UBL9, A304F); assay: Site-saturation screen of ligand-binding domain with ATP, A304F; assay type: cell-based; details: 500 μM ATP, ± sd
# T3 construct: expressed in transfected cells; host or cells: Saccharomyces cerevisiae BY4741 derivative, genome-integrated, galactose-inducible
# T3 sequence (Q9UBL9 whole entry A304F, the tested form may be a part): as the sequence (Q9UBL9 whole entry A304I, the tested form may be a part) above, with I304F counted along it
# Description: as §1, §2, §3
# P2X2 F303M = target: T4, P2X2 F303M (Homo sapiens, UniProt Q9UBL9, F303M); assay: Site-saturation screen of ligand-binding domain with ATP, F303M; assay type: cell-based; details: 500 μM ATP, ± sd
# T4 construct: expressed in transfected cells; host or cells: Saccharomyces cerevisiae BY4741 derivative, genome-integrated, galactose-inducible
# T4 sequence (Q9UBL9 whole entry F303M, the tested form may be a part): as the sequence (Q9UBL9 whole entry A304I, the tested form may be a part) above, with F303M, I304A counted along it
# Description: as §1, §2, §3
# P2X2 Y299H = target: T5, P2X2 Y299H (Homo sapiens, UniProt Q9UBL9, Y299H); assay: Site-saturation screen of ligand-binding domain with ATP, Y299H; assay type: cell-based; details: 500 μM ATP, ± sd
# T5 construct: expressed in transfected cells; host or cells: S. cerevisiae BY4741 background
# T5 sequence (Q9UBL9 whole entry Y299H, the tested form may be a part): as the sequence (Q9UBL9 whole entry A304I, the tested form may be a part) above, with Y299H, I304A counted along it
# Description: as §1, §2, §3
# P2X2 R302 lysine (R302K) = target: T6, P2X2 R302 lysine (R302K) (Homo sapiens, UniProt Q9UBL9, R302K); assay: Site-saturation screen of ligand-binding domain with ATP, R302 lysine; assay type: cell-based; details: 500 μM ATP, ± sd
# T6 construct: expressed in transfected cells; host or cells: S. cerevisiae BY4741 background
# T6 sequence (Q9UBL9 whole entry R302K, the tested form may be a part): as the sequence (Q9UBL9 whole entry A304I, the tested form may be a part) above, with R302K, I304A counted along it
# Description: as §1, §2, §3
# P2X2 G353R = target: T7, P2X2 G353R (Homo sapiens, UniProt Q9UBL9, G353R); assay: Site-saturation screen, fast kinetic assay in yeast, G353R; assay type: cell-based; details: 500 μM ATP, ΔF/ΔT normalized to WT
# T7 construct: expressed in transfected cells; host or cells: S. cerevisiae BY4741 background
# T7 sequence (Q9UBL9 whole entry G353R): as the sequence (Q9UBL9 whole entry A304I, the tested form may be a part) above, with I304A, G353R counted along it
# Method: as §4, §5
# [2] = target: T8, P2X2 G353 serine substitution (G353S) (Homo sapiens, UniProt Q9UBL9, G353S); assay: Site-saturation screen, fast kinetic assay in yeast, G353 serine; assay type: cell-based; details: 500 μM ATP, ΔF/ΔT normalized to WT
# T8 construct: expressed in transfected cells; host or cells: S. cerevisiae BY4741 background
# T8 sequence (Q9UBL9 whole entry G353S): as the sequence (Q9UBL9 whole entry A304I, the tested form may be a part) above, with I304A, G353S counted along it
# Method: as §4, §5
# P2X2 N300T = target: T9, P2X2 N300T (Homo sapiens, UniProt Q9UBL9, N300T); assay: Site-saturation screen of ligand-binding domain with ATP, N300T; assay type: cell-based; details: 500 μM ATP, ± sd
# T9 construct: expressed in transfected cells; host or cells: S. cerevisiae BY4741 background
# T9 sequence (Q9UBL9 whole entry N300T, the tested form may be a part): as the sequence (Q9UBL9 whole entry A304I, the tested form may be a part) above, with N300T, I304A counted along it
# Description: as §1, §2, §3
# P2X2 A304H = target: T10, P2X2 A304H (Homo sapiens, UniProt Q9UBL9, A304H); assay: Site-saturation screen of ligand-binding domain with ATP, A304H; assay type: cell-based; details: 500 μM ATP, ± sd
# T10 construct: expressed in transfected cells; host or cells: Saccharomyces cerevisiae BY4741 derivative, genome-integrated, galactose-inducible
# T10 sequence (Q9UBL9 whole entry A304H, the tested form may be a part): as the sequence (Q9UBL9 whole entry A304I, the tested form may be a part) above, with I304H counted along it
# Description: as §1, §2, §3
# [3] = target: T11, P2X2 G353 histidine substitution (G353H) (Homo sapiens, UniProt Q9UBL9, G353H); assay: Site-saturation screen, fast kinetic assay in yeast, G353 histidine; assay type: cell-based; details: 500 μM ATP, ΔF/ΔT normalized to WT
# T11 construct: expressed in transfected cells; host or cells: S. cerevisiae BY4741 background
# T11 sequence (Q9UBL9 whole entry G353H): as the sequence (Q9UBL9 whole entry A304I, the tested form may be a part) above, with I304A, G353H counted along it
# Method: as §4, §5
# P2X2 A304V = target: T12, P2X2 A304V (Homo sapiens, UniProt Q9UBL9, A304V); assay: Site-saturation screen of ligand-binding domain with ATP, A304V; assay type: cell-based; details: 500 μM ATP, ± sd
# T12 construct: expressed in transfected cells; host or cells: Saccharomyces cerevisiae BY4741 derivative, genome-integrated, galactose-inducible
# T12 sequence (Q9UBL9 whole entry A304V, the tested form may be a part): as the sequence (Q9UBL9 whole entry A304I, the tested form may be a part) above, with I304V counted along it
# Description: as §1, §2, §3
# P2X2 = system: P2X2; design: method as in PMID 10570044; details: human glia; read-out: EC50, previously published value; cited from earlier work
smiles,measurement,setting,value
Nc1ncnc2c1ncn2[C@@H]1O[C@H](COP(=O)(O)OP(=O)(O)OP(=O)(O)O)[C@@H](O)[C@H]1O [ATP],"signal, % of WT signaling",P2X2 A304I,24 ± 17%
same,signaling,P2X2 F301 mutants,None of the F301 mutants showed significant signaling
same,"signaling, % of WT activity",[1],50%
same,"signal, % of WT signaling",P2X2 A304F,57 ± 2.6%
same,"signal, % of WT signaling",P2X2 F303M,71 ± 14%
same,signal relative to WT,P2X2 Y299H,11 ± 5%
same,"signal, % of WT signaling",P2X2 R302 lysine (R302K),43 ± 15%
same,function in the assay,P2X2 G353R,not observed to be functional
same,"signaling, % of WT activity",[2],95%
same,"signal, % of WT signaling",P2X2 N300T,51 ± 10%
same,"signal, % of WT signaling",P2X2 A304H,27 ± 18%
same,"signaling, % of WT activity",[3],32%
same,"signal, % of WT signaling",P2X2 A304V,32 ± 2.1%
same,EC50,P2X2,6 µM
